Measurements taken from publication PMC10763615, “Identification and engineering of potent cyclic peptides with selective or promiscuous binding through biochemical profiling and bioinformatic data analysis” (RSC Chemical Biology, 2023).
Positions of bridges follow the written chain, without caps; N, C: chain ends. Residues, ends and D or L forms follow the SMILES beside them.

Tests used:
Assay type in all cases: binding
FGF-R4 ECD = biological target: T1, FGF-R4 ECD (Homo sapiens, UniProt P22455); assay: single concentration BLI of crude peptides; settings: crude T18 selection 1 (1:1:1) peptides, single concentration BLI (Table S4); read-out: KD (4)
T1 construct: DNA constructs for the extracellular domain (ECD) of human FGF-; HPC4 (C); made in house; host or cells: HEK 293-6E
T1 sequence (P22455 22-369 limits assumed): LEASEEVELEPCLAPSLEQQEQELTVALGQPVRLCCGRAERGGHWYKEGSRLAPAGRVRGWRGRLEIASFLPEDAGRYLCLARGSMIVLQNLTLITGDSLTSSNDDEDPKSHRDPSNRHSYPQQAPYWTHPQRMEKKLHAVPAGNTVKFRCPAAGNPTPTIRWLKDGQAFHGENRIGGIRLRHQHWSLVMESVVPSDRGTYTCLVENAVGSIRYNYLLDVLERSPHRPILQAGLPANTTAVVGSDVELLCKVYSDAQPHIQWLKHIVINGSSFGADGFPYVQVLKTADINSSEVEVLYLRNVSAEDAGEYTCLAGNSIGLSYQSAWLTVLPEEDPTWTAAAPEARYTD
Procedure, shortened: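 Streptavidin biosensors carrying biotinylated FGF receptor ECD were immersed in peptide (~1 μM for crude single-point runs, a concentration series for purified peptides) and then in peptide-free buffer. KD was obtained by fitting the BLI association and dissociation curves.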

FGF-R1C ECD = biological target: T2, FGF-R1C ECD (Homo sapiens, UniProt P11362); assay: biochemical; design: DNA constructs for the extracellular domain (ECD) of human FGF-; HPC4 (C); made in house; host or cells: HEK 293-6E
T2 sequence (P11362 22-376 limits assumed): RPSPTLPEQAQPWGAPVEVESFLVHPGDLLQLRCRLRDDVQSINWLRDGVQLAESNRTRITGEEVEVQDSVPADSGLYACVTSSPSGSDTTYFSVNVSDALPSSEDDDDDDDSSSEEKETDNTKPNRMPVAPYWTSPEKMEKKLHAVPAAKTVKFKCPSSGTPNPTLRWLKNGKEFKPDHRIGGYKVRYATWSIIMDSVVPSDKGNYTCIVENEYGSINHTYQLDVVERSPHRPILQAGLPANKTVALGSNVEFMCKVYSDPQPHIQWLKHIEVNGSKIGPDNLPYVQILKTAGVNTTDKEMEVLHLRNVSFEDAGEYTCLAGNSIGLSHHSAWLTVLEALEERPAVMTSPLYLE
Procedure, shortened: (§1)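 Biotinylated FGF-R ECD on streptavidin biosensors was dipped into ~1 μM crude peptide in PBS pH7.4 with 0.05% Tween-20 and 0.01% BSA for association, then into buffer for dissociation, and followed by BLI. Fitted KD values were adjusted for peptide concentration measured by UPLC-CAD.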

FGF-R3C ECD = biological target: T3, FGF-R3C ECD (Homo sapiens, UniProt P22607); assay: biochemical; design: DNA constructs for the extracellular domain (ECD) of human FGF-; HPC4 (C); made in house; host or cells: HEK 293-6E
T3 sequence (P22607 23-375 limits assumed): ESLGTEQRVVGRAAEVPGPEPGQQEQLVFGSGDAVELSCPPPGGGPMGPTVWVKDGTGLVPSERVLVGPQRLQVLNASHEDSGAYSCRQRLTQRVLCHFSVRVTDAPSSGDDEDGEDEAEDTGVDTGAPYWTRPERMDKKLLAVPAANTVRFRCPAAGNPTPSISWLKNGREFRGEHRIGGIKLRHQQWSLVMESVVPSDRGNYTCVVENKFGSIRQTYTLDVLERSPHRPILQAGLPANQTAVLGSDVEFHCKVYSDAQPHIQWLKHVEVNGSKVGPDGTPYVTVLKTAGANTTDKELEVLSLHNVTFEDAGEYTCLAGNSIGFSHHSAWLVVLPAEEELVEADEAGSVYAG
Procedure, shortened: as §1

SMILES | Kd (FGF-R4 ECD) [µM] | Kd (FGF-R1C ECD) [µM] | Kd (FGF-R3C ECD) [µM]
CSCC[C@H](NC(C)=O)C(=O)N[C@H]1CSSC[C@@H](C(=O)NCC(=O)N[C@@H](CO)C(=O)NCC(=O)N[C@@H](CO)C(=O)N[C@@H](CCC(=O)O)C(=O)N[C@@H](CCC(=O)O)C(=O)NCC(=O)N[C@@H](CO)C(=O)NCC(=O)N[C@@H](CO)C(=O)N[C@@H](CC(=O)O)C(=O)N[C@@H](Cc2ccc(O)cc2)C(=O)N[C@@H](CCCCN)C(=O)N[C@@H](CC(=O)O)C(=O)N[C@@H](CC(=O)O)C(=O)N[C@@H](CC(=O)O)C(=O)N[C@@H](CC(=O)O)C(=O)N[C@@H](CCCCN)C(N)=O)NC(=O)[C@H](Cc2c[nH]cn2)NC(=O)[C@H](Cc2ccccc2)NC(=O)[C@H](CC(C)C)NC(=O)[C@H](CCCCN)NC(=O)[C@H](Cc2c[nH]c3ccccc23)NC(=O)[C@H](Cc2ccc(O)cc2)NC(=O)[C@H](Cc2ccc(O)cc2)NC(=O)[C@H](CC(C)C)NC(=O)[C@H](Cc2c[nH]cn2)NC(=O)[C@H](CCCNC(=N)N)NC(=O)CNC(=O)[C@H]([C@@H](C)O)NC1=O (Ac-MCTGRHLYYWKLFHCGSGSEEGSGSDYKDDDDK-NH2; disulfide 2-15) | 0.01 | > 10 | > 10
CSCC[C@H](NC(C)=O)C(=O)N[C@H]1CSSC[C@@H](C(=O)NCC(=O)N[C@@H](CO)C(=O)NCC(=O)N[C@@H](CO)C(=O)N[C@@H](CC(=O)O)C(=O)N[C@@H](Cc2ccc(O)cc2)C(=O)N[C@@H](CCCCN)C(=O)N[C@@H](CC(=O)O)C(=O)N[C@@H](CC(=O)O)C(=O)N[C@@H](CC(=O)O)C(=O)N[C@@H](CC(=O)O)C(=O)N[C@@H](CCCCN)C(N)=O)NC(=O)[C@H](CCC(N)=O)NC(=O)[C@H](Cc2c[nH]cn2)NC(=O)[C@H](Cc2c[nH]c3ccccc23)NC(=O)[C@H](CC(C)C)NC(=O)[C@H]([C@@H](C)O)NC(=O)[C@H](CCC(=O)O)NC(=O)[C@H](Cc2ccc(O)cc2)NC(=O)[C@@H]2CCCN2C(=O)[C@H](Cc2c[nH]cn2)NC(=O)[C@H](CCCNC(=N)N)NC(=O)[C@H](Cc2c[nH]cn2)NC(=O)[C@H]([C@@H](C)O)NC1=O (Ac-MCTHRHPYETLWHQCGSGSDYKDDDDK-NH2; disulfide 2-15) | > 10 | > 10 | > 10
CC[C@H](C)[C@@H]1NC(=O)[C@H](CC(C)C)NC(=O)[C@H](Cc2ccc(O)cc2)NC(=O)[C@H](Cc2c[nH]cn2)NC(=O)[C@H](Cc2c[nH]cn2)NC(=O)CNC(=O)[C@H](CC(C)C)NC(=O)[C@H](C(C)C)NC(=O)[C@H](Cc2ccccc2)NC(=O)[C@H](CC(=O)O)NC(=O)[C@H](Cc2ccc(O)cc2)NC(=O)[C@H]([C@@H](C)O)NC(=O)[C@@H](NC(=O)[C@H](CCSC)NC(C)=O)CSSC[C@@H](C(=O)NCC(=O)N[C@@H](CO)C(=O)NCC(=O)N[C@@H](CO)C(=O)N[C@@H](CC(=O)O)C(=O)N[C@@H](Cc2ccc(O)cc2)C(=O)N[C@@H](CCCCN)C(=O)N[C@@H](CC(=O)O)C(=O)N[C@@H](CC(=O)O)C(=O)N[C@@H](CC(=O)O)C(=O)N[C@@H](CC(=O)O)C(=O)N[C@@H](CCCCN)C(N)=O)NC1=O (Ac-MCTYDFVLGHHYLICGSGSDYKDDDDK-NH2; disulfide 2-15) | > 10 | > 10 | > 10
CSCC[C@H](NC(C)=O)C(=O)N[C@H]1CSSC[C@@H](C(=O)NCC(=O)N[C@@H](CO)C(=O)NCC(=O)N[C@@H](CO)C(=O)N[C@@H](CC(=O)O)C(=O)N[C@@H](Cc2ccc(O)cc2)C(=O)N[C@@H](CCCCN)C(=O)N[C@@H](CC(=O)O)C(=O)N[C@@H](CC(=O)O)C(=O)N[C@@H](CC(=O)O)C(=O)N[C@@H](CC(=O)O)C(=O)N[C@@H](CCCCN)C(N)=O)NC(=O)[C@H](Cc2c[nH]cn2)NC(=O)[C@H](CC(C)C)NC(=O)[C@H](Cc2ccc(O)cc2)NC(=O)[C@H](CC(C)C)NC(=O)[C@H](CCC(=O)O)NC(=O)[C@H](CCC(=O)O)NC(=O)[C@H](Cc2ccccc2)NC(=O)[C@H](CC(C)C)NC(=O)[C@H](Cc2ccccc2)NC(=O)[C@H](CCC(=O)O)NC(=O)[C@H](Cc2ccc(O)cc2)NC(=O)[C@H]([C@@H](C)O)NC1=O (Ac-MCTYEFLFEELYLHCGSGSDYKDDDDK-NH2; disulfide 2-15) | > 10 | > 10 | > 10
CSCC[C@H](NC(C)=O)C(=O)N[C@H]1CSSC[C@@H](C(=O)NCC(=O)N[C@@H](CO)C(=O)NCC(=O)N[C@@H](CO)C(=O)N[C@@H](CC(=O)O)C(=O)N[C@@H](Cc2ccc(O)cc2)C(=O)N[C@@H](CCCCN)C(=O)N[C@@H](CC(=O)O)C(=O)N[C@@H](CC(=O)O)C(=O)N[C@@H](CC(=O)O)C(=O)N[C@@H](CC(=O)O)C(=O)N[C@@H](CCCCN)C(N)=O)NC(=O)[C@H](CCCNC(=N)N)NC(=O)[C@H](Cc2c[nH]cn2)NC(=O)[C@H](Cc2ccccc2)NC(=O)[C@H](CC(C)C)NC(=O)[C@H](CCCCN)NC(=O)[C@H](Cc2ccc(O)cc2)NC(=O)[C@H](Cc2ccc(O)cc2)NC(=O)[C@H](Cc2ccc(O)cc2)NC(=O)[C@H](C(C)C)NC(=O)[C@H](Cc2ccc(O)cc2)NC(=O)[C@H]([C@@H](C)O)NC1=O (Ac-MCTYVYYYKLFHRCGSGSDYKDDDDK-NH2; disulfide 2-14) | 0.003 | > 10 | > 10
CC[C@H](C)[C@@H]1NC(=O)[C@H](Cc2ccc(O)cc2)NC(=O)[C@H](CCCCN)NC(=O)[C@H](C(C)C)NC(=O)[C@@H](NC(=O)[C@H](CCSC)NC(C)=O)CSSC[C@@H](C(=O)NCC(=O)N[C@@H](CO)C(=O)NCC(=O)N[C@@H](CO)C(=O)N[C@@H](CC(=O)O)C(=O)N[C@@H](Cc2ccc(O)cc2)C(=O)N[C@@H](CCCCN)C(=O)N[C@@H](CC(=O)O)C(=O)N[C@@H](CC(=O)O)C(=O)N[C@@H](CC(=O)O)C(=O)N[C@@H](CC(=O)O)C(=O)N[C@@H](CCCCN)C(N)=O)NC(=O)[C@H](Cc2c[nH]cn2)NC(=O)[C@H](Cc2ccccc2)NC(=O)[C@H](C(C)C)NC(=O)[C@H](CO)NC(=O)[C@H](Cc2c[nH]c3ccccc23)NC(=O)[C@H](Cc2ccc(O)cc2)NC(=O)[C@H](CCCCN)NC1=O (Ac-MCVKYIKYWSVFHCGSGSDYKDDDDK-NH2; disulfide 2-14) | 0.017 | > 10 | > 10
CSCC[C@H](NC(C)=O)C(=O)N[C@H]1CSSC[C@@H](C(=O)NCC(=O)N[C@@H](CO)C(=O)NCC(=O)N[C@@H](CO)C(=O)N[C@@H](CC(=O)O)C(=O)N[C@@H](Cc2ccc(O)cc2)C(=O)N[C@@H](CCCCN)C(=O)N[C@@H](CC(=O)O)C(=O)N[C@@H](CC(=O)O)C(=O)N[C@@H](CC(=O)O)C(=O)N[C@@H](CC(=O)O)C(=O)N[C@@H](CCCCN)C(N)=O)NC(=O)[C@H](Cc2ccc(O)cc2)NC(=O)[C@H](Cc2c[nH]c3ccccc23)NC(=O)[C@H](CC(N)=O)NC(=O)[C@H](CCCNC(=N)N)NC(=O)[C@H](CC(=O)O)NC(=O)[C@H](CC(C)C)NC(=O)[C@H](CCCNC(=N)N)NC(=O)[C@H](Cc2ccc(O)cc2)NC(=O)[C@H](CCCCN)NC(=O)[C@H](Cc2c[nH]c3ccccc23)NC(=O)[C@H](C(C)C)NC1=O (Ac-MCVWKYRLDRNWYCGSGSDYKDDDDK-NH2; disulfide 2-14) | 2.04 | 0.078 | > 10
CSCC[C@H](NC(C)=O)C(=O)N[C@H]1CSSC[C@@H](C(=O)NCC(=O)N[C@@H](CO)C(=O)NCC(=O)N[C@@H](CO)C(=O)N[C@@H](CC(=O)O)C(=O)N[C@@H](Cc2ccc(O)cc2)C(=O)N[C@@H](CCCCN)C(=O)N[C@@H](CC(=O)O)C(=O)N[C@@H](CC(=O)O)C(=O)N[C@@H](CC(=O)O)C(=O)N[C@@H](CC(=O)O)C(=O)N[C@@H](CCCCN)C(N)=O)NC(=O)[C@H](Cc2c[nH]cn2)NC(=O)[C@H](Cc2c[nH]c3ccccc23)NC(=O)[C@H](CC(N)=O)NC(=O)[C@H](Cc2ccc(O)cc2)NC(=O)[C@H](Cc2c[nH]cn2)NC(=O)[C@H](Cc2c[nH]cn2)NC(=O)[C@H](CO)NC(=O)[C@H](Cc2ccc(O)cc2)NC(=O)[C@H](CCC(N)=O)NC(=O)[C@H](Cc2c[nH]c3ccccc23)NC(=O)[C@H](C(C)C)NC1=O (Ac-MCVWQYSHHYNWHCGSGSDYKDDDDK-NH2; disulfide 2-14) | > 10 | > 10 | > 10
